{"source": "patent US8280710B2", "about": "“Method for determining thermal stability of collagen or collagen-like peptide” (University of Medicine and Dentistry of New Jersey, priority 2005, dated 2012)", "key": {"[1]": {"assay": "Method for predicting global Tm of collagen peptides from amino acid sequence", "details": "observed minus predicted, peptides of Table 3", "protocol": "The global thermal stability of homotrimeric triple helical peptides with length of at least 6 tripeptide units and, in most cases, containing 10 tripeptide units was determined as follows.\nFor the total number of triplets n in a given peptide, the base Tm^0(n) for (Pro-Hyp-Gly) or (Pro-Pro-Gly)n was calculated from the length dependence (Equation 1), including any effect of blocking groups;\nThe melting temperature value was decreased for every triplet in the sequence that was not Gly-Pro-Hyp, subtracting a value of ΔTm^GXY (Table 1). The N-terminal and C-terminal tripeptide units were excluded from the calculation due to the staggering of the chains and the disorder for the peptide ends (Bella et al. (1994) supra; Li, et al. (1993) Biochemistry 32:7377-7387; Kramer, et al. (2001) J. Mol. Biol. 301:1191-1205).\nThe resulting value for the peptide melting temperature was adjusted using the ΔTm^int values for interactions between neighboring tripeptides (Table 2).\nThe method was formulated as follows.\nTo extrapolate the dependence of the Tm of the host peptides on peptide length, the experimental values for (Pro-Hyp-Gly)n and (Pro-Pro-Gly)n versus n, where n is the number of tripeptide units, were fit to the exponential decay function\n[formula] where Tm^0(n) is defined as the base thermal stability of the repeating polytripeptide standard, Tm^max is the maximum melting temperature, and the constant n0 represents the length of the repeating peptide with Tm=0."}, "[2]": {"details": "peptide of Table 3, defined standard conditions", "protocol": "The propensity measurements for all 20 amino acid residues in the Xaa1 position in a Gly-Xaa1-Hyp context and all 20 amino acid residues in the Xaa2 position in a Gly-Pro-Xaa2 context were determined by measuring thermal stability of host-guest peptides (Persikov, et al. (2000) supra).\nThe Tm values of all host-guest peptides were measured under a set of standard conditions, with c=1 mg/ml in phosphate-buffered saline, pH 7.0, and with a heating rate average of 0.1° C./minute (Persikov, et al. (2004) supra)."}}, "note": "Non-standard residues stand in square brackets, D forms with d. Residues, ends and D or L forms follow the SMILES beside them. Hyp = O=C(O)[C@@H]1C[C@@H](O)CN1"}
{"molecule": "CC(=O)NCC(=O)N1CCC[C@H]1C(=O)N1C[C@H](O)C[C@H]1C(=O)NCC(=O)N1CCC[C@H]1C(=O)N1C[C@H](O)C[C@H]1C(=O)NCC(=O)N[C@@H](CCCNC(=N)N)C(=O)N[C@@H](CCC(N)=O)C(=O)NCC(=O)N[C@@H](CCCCN)C(=O)N[C@@H](CCCNC(=N)N)C(=O)NCC(=O)N[C@@H](CCCCN)C(=O)N1C[C@H](O)C[C@H]1C(=O)NCC(=O)N1CCC[C@H]1C(=O)N1C[C@H](O)C[C@H]1C(=O)NCC(=O)N1CCC[C@H]1C(=O)N1C[C@H](O)C[C@H]1C(=O)NCC(=O)N1CCC[C@H]1C(=O)N1C[C@H](O)C[C@H]1C(=O)NCC(=O)NCC(N)=O", "note": "[AchE-HG-Alt, Ac-GPO-GPO-GRQ-GKR-GKO-GPO-GPO-GPO-GG-NH2] (Ac-GP[Hyp]GP[Hyp]GRQGKRGK[Hyp]GP[Hyp]GP[Hyp]GP[Hyp]GG-NH2)", "values": [{"measurement": "ΔTm", "setting": "[1]", "value": "−0.5", "unit": "°C"}, {"measurement": "Tm^obs", "setting": "[2]", "value": 20.1, "unit": "°C"}]}
{"molecule": "CC(=O)NCC(=O)N1CCC[C@H]1C(=O)N1C[C@H](O)C[C@H]1C(=O)NCC(=O)N1CCC[C@H]1C(=O)N1C[C@H](O)C[C@H]1C(=O)NCC(=O)N1CCC[C@H]1C(=O)N1C[C@H](O)C[C@H]1C(=O)NCC(=O)N[C@@H](CCCCN)C(=O)N[C@@H](CCCNC(=N)N)C(=O)NCC(=O)N[C@@H](CCCCN)C(=O)N1C[C@H](O)C[C@H]1C(=O)NCC(=O)N1CCC[C@H]1C(=O)N1C[C@H](O)C[C@H]1C(=O)NCC(=O)N1CCC[C@H]1C(=O)N1C[C@H](O)C[C@H]1C(=O)NCC(=O)N1CCC[C@H]1C(=O)N1C[C@H](O)C[C@H]1C(=O)NCC(=O)NCC(N)=O", "note": "[AchE-HG-C1, Ac-GPO-GPO-GPO-GKR-GKO-GPO-GPO-GPO-GG-NH2] (Ac-GP[Hyp]GP[Hyp]GP[Hyp]GKRGK[Hyp]GP[Hyp]GP[Hyp]GP[Hyp]GG-NH2)", "values": [{"measurement": "ΔTm", "setting": "[1]", "value": "−1.0", "unit": "°C"}, {"measurement": "Tm^obs", "setting": "[2]", "value": 32.3, "unit": "°C"}]}
{"molecule": "CC(=O)NCC(=O)N1CCC[C@H]1C(=O)N1C[C@H](O)C[C@H]1C(=O)NCC(=O)N1CCC[C@H]1C(=O)N1C[C@H](O)C[C@H]1C(=O)NCC(=O)N[C@@H](CCCNC(=N)N)C(=O)N1C[C@H](O)C[C@H]1C(=O)NCC(=O)N[C@@H](CCCCN)C(=O)N[C@@H](CCCNC(=N)N)C(=O)NCC(=O)N[C@@H](CCCCN)C(=O)N1C[C@H](O)C[C@H]1C(=O)NCC(=O)N1CCC[C@H]1C(=O)N1C[C@H](O)C[C@H]1C(=O)NCC(=O)N1CCC[C@H]1C(=O)N1C[C@H](O)C[C@H]1C(=O)NCC(=O)N1CCC[C@H]1C(=O)N1C[C@H](O)C[C@H]1C(=O)NCC(=O)NCC(N)=O", "note": "[AchE-HG-C2, Ac-GPO-GPO-GRO-GKR-GKO-GPO-GPO-GPO-GG-NH2] (Ac-GP[Hyp]GP[Hyp]GR[Hyp]GKRGK[Hyp]GP[Hyp]GP[Hyp]GP[Hyp]GG-NH2)", "values": [{"measurement": "ΔTm", "setting": "[1]", "value": 0.3, "unit": "°C"}, {"measurement": "Tm^obs", "setting": "[2]", "value": 26.9, "unit": "°C"}]}
{"molecule": "CC(=O)NCC(=O)N1CCC[C@H]1C(=O)N1C[C@H](O)C[C@H]1C(=O)NCC(=O)N1CCC[C@H]1C(=O)N1C[C@H](O)C[C@H]1C(=O)NCC(=O)N[C@@H](CCCNC(=N)N)C(=O)N1C[C@H](O)C[C@H]1C(=O)NCC(=O)N[C@@H](CCCCN)C(=O)N[C@@H](CCCNC(=N)N)C(=O)NCC(=O)N[C@@H](CCCCN)C(=O)N[C@@H](CCC(N)=O)C(=O)NCC(=O)N1CCC[C@H]1C(=O)N1C[C@H](O)C[C@H]1C(=O)NCC(=O)N1CCC[C@H]1C(=O)N1C[C@H](O)C[C@H]1C(=O)NCC(=O)N1CCC[C@H]1C(=O)N1C[C@H](O)C[C@H]1C(=O)NCC(=O)NCC(N)=O", "note": "[AchE-HG-C3, Ac-GPO-GPO-GRO-GKR-GKQ-GPO-GPO-GPO-GG-NH2] (Ac-GP[Hyp]GP[Hyp]GR[Hyp]GKRGKQGP[Hyp]GP[Hyp]GP[Hyp]GG-NH2)", "values": [{"measurement": "ΔTm", "setting": "[1]", "value": "−2.7", "unit": "°C"}, {"measurement": "Tm^obs", "setting": "[2]", "value": 21.3, "unit": "°C"}]}
{"molecule": "CC(=O)NCC(=O)N1CCC[C@H]1C(=O)N1C[C@H](O)C[C@H]1C(=O)NCC(=O)N1CCC[C@H]1C(=O)N1C[C@H](O)C[C@H]1C(=O)NCC(=O)N[C@@H](CCCNC(=N)N)C(=O)N1C[C@H](O)C[C@H]1C(=O)NCC(=O)N[C@@H](CCCCN)C(=O)N[C@@H](CCCNC(=N)N)C(=O)NCC(=O)N[C@@H](CCCCN)C(=O)N[C@@H](CCC(N)=O)C(=O)NCC(=O)N[C@@H](CCC(N)=O)C(=O)N[C@@H](CCCCN)C(=O)NCC(=O)N1CCC[C@H]1C(=O)N1C[C@H](O)C[C@H]1C(=O)NCC(=O)N1CCC[C@H]1C(=O)N1C[C@H](O)C[C@H]1C(=O)NCC(=O)NCC(N)=O", "note": "[AchE-HG-C4, Ac-GPO-GPO-GRO-GKR-GKQ-GQK-GPO-GPO-GG-NH2] (Ac-GP[Hyp]GP[Hyp]GR[Hyp]GKRGKQGQKGP[Hyp]GP[Hyp]GG-NH2)", "values": [{"measurement": "ΔTm", "setting": "[1]", "value": "−1.2", "unit": "°C"}, {"measurement": "Tm^obs", "setting": "[2]", "value": 8.1, "unit": "°C"}]}
{"molecule": "CC(=O)NCC(=O)N1CCC[C@H]1C(=O)N1C[C@H](O)C[C@H]1C(=O)NCC(=O)N1CCC[C@H]1C(=O)N1C[C@H](O)C[C@H]1C(=O)NCC(=O)N1CCC[C@H]1C(=O)N1C[C@H](O)C[C@H]1C(=O)NCC(=O)N[C@@H](CCCNC(=N)N)C(=O)N[C@@H](CCCCN)C(=O)NCC(=O)N[C@@H](CCCNC(=N)N)C(=O)N1C[C@H](O)C[C@H]1C(=O)NCC(=O)N1CCC[C@H]1C(=O)N1C[C@H](O)C[C@H]1C(=O)NCC(=O)N1CCC[C@H]1C(=O)N1C[C@H](O)C[C@H]1C(=O)NCC(=O)N1CCC[C@H]1C(=O)N1C[C@H](O)C[C@H]1C(=O)NCC(=O)NCC(N)=O", "note": "[AchE-HG-N1, Ac-GPO-GPO-GPO-GRK-GRO-GPO-GPO-GPO-GG-NH2] (Ac-GP[Hyp]GP[Hyp]GP[Hyp]GRKGR[Hyp]GP[Hyp]GP[Hyp]GP[Hyp]GG-NH2)", "values": [{"measurement": "ΔTm", "setting": "[1]", "value": "−0.6", "unit": "°C"}, {"measurement": "Tm^obs", "setting": "[2]", "value": 22.2, "unit": "°C"}]}
{"molecule": "CC(=O)NCC(=O)N1CCC[C@H]1C(=O)N1C[C@H](O)C[C@H]1C(=O)NCC(=O)N1CCC[C@H]1C(=O)N1C[C@H](O)C[C@H]1C(=O)NCC(=O)N[C@@H](CCCNC(=N)N)C(=O)N1C[C@H](O)C[C@H]1C(=O)NCC(=O)N[C@@H](CCCNC(=N)N)C(=O)N[C@@H](CCCCN)C(=O)NCC(=O)N[C@@H](CCCNC(=N)N)C(=O)N1C[C@H](O)C[C@H]1C(=O)NCC(=O)N1CCC[C@H]1C(=O)N1C[C@H](O)C[C@H]1C(=O)NCC(=O)N1CCC[C@H]1C(=O)N1C[C@H](O)C[C@H]1C(=O)NCC(=O)N1CCC[C@H]1C(=O)N1C[C@H](O)C[C@H]1C(=O)NCC(=O)NCC(N)=O", "note": "[AchE-HG-N2, Ac-GPO-GPO-GRO-GRK-GRO-GPO-GPO-GPO-GG-NH2] (Ac-GP[Hyp]GP[Hyp]GR[Hyp]GRKGR[Hyp]GP[Hyp]GP[Hyp]GP[Hyp]GG-NH2)", "values": [{"measurement": "ΔTm", "setting": "[1]", "value": 1.3, "unit": "°C"}, {"measurement": "Tm^obs", "setting": "[2]", "value": 17.4, "unit": "°C"}]}
{"molecule": "CC(=O)NCC(=O)N1CCC[C@H]1C(=O)N1C[C@H](O)C[C@H]1C(=O)NCC(=O)N1CCC[C@H]1C(=O)N1C[C@H](O)C[C@H]1C(=O)NCC(=O)N[C@@H](CCCNC(=N)N)C(=O)N1C[C@H](O)C[C@H]1C(=O)NCC(=O)N[C@@H](CCCNC(=N)N)C(=O)N[C@@H](CCCCN)C(=O)NCC(=O)N[C@@H](CCCNC(=N)N)C(=O)N1C[C@H](O)C[C@H]1C(=O)NCC(=O)N1CCC[C@H]1C(=O)N1C[C@H](O)C[C@H]1C(=O)NCC(=O)N1CCC[C@H]1C(=O)N1C[C@H](O)C[C@H]1C(=O)NCC(=O)N1CCC[C@H]1C(=O)N1C[C@H](O)C[C@H]1C(=O)NCC(=O)N1CCC[C@H]1C(=O)N1C[C@H](O)C[C@H]1C(=O)NCC(=O)N1CCC[C@H]1C(=O)N1C[C@H](O)C[C@H]1C(=O)NCC(N)=O", "note": "[AchE-P126 (r), Ac-GPO-GPO-GRO-GRK-GRO-(GPO)5-G-NH2] (Ac-GP[Hyp]GP[Hyp]GR[Hyp]GRKGR[Hyp]GP[Hyp]GP[Hyp]GP[Hyp]GP[Hyp]GP[Hyp]G-NH2)", "values": [{"measurement": "ΔTm", "setting": "[1]", "value": "−2.6", "unit": "°C"}, {"measurement": "Tm^obs", "setting": "[2]", "value": 30.0, "unit": "°C"}]}
{"molecule": "CC(=O)NCC(=O)N1CCC[C@H]1C(=O)N1C[C@H](O)C[C@H]1C(=O)NCC(=O)N1CCC[C@H]1C(=O)N1C[C@H](O)C[C@H]1C(=O)NCC(=O)N1CCC[C@H]1C(=O)N1C[C@H](O)C[C@H]1C(=O)NCC(=O)N1CCC[C@H]1C(=O)N1C[C@H](O)C[C@H]1C(=O)NCC(=O)N1CCC[C@H]1C(=O)N[C@@H](C)C(=O)NCC(=O)N1CCC[C@H]1C(=O)N[C@@H](C)C(=O)NCC(=O)N1CCC[C@H]1C(=O)N[C@H](C(=O)NCC(=O)N1CCC[C@H]1C(=O)N[C@@H](C)C(=O)NCC(=O)N[C@@H](C)C(=O)N[C@@H](CCCNC(=N)N)C(=O)NCC(=O)N1CCC[C@H]1C(=O)N[C@@H](C)C(=O)NCC(=O)N[C@H](C(N)=O)C(C)C)C(C)C", "note": "[T1-892r, Ac-(GPO)4-GPA-GPA-GPV-GPA-GAR-GPA-GV-NH2] (Ac-GP[Hyp]GP[Hyp]GP[Hyp]GP[Hyp]GPAGPAGPVGPAGARGPAGV-NH2)", "values": [{"measurement": "ΔTm", "setting": "[1]", "value": "−2.2", "unit": "°C"}]}
{"molecule": "MBL: MBL peptide(s) of Table 3 containing Gly-Lys-Asp-Gly-Arg-Asp-Gly-Thr-Lys-Gly-Glu-Lys-Gly-Glu-Hyp; not said whether MBL 42-61 or 45-61 (GKDGRDGTKGEKGEP)", "values": [{"measurement": "ΔTm", "setting": "[1]", "value": "higher than observed"}]}
